Where “and” joins values, the source holds several entries; their conditions need not be identical. Identical values can stand only once. Like-named read-outs stand apart in the source and are kept apart here.

Common to all, as to format: cell-based
Experiment [1] addresses T1, human dopamine transporter/SLC6A3 (DAT) (Homo sapiens, UniProt Q01959).
T1 construct: expressed in transfected cells; host or cells: HEK293
Put plainly: Cellular uptake experiments: [3H]-dopamine reuptake inhibition in transporter-expressing HEK293 cells. Particulars: for IC50: cells stably expressing DAT, [3H]-dopamine 1 µM, screening cut-off 50 µM; for activity on DAT (reuptake inhibition), in words: at 50 µM. On the procedure: (§1) Cell culture. Human embryonic kidney (HEK) 293 or SK-N-MC (human neuroblastoma) cells were grown in minimum essential medium with Earle’s salts and L-glutamine, 10% heat-inactivated fetal bovine serum, and 50 mg/L gentamicin. Cells were grown in 100- or 60-mm diameter tissue culture dishes (polystyrene, Falcon) at 37 °C under an atmosphere of 5% CO2/95% air. The human dopamine transporter/SLC6A3 (DAT), noradrenaline transporter/SLC6A2 (NET), or human serotonin transporter/SLC6A4 (SERT) cDNA was stably expressed using methods as described previously.
(§2) Cellular uptake experiments. The transporter-expressing HEK293 cells were seeded in poly-D-lysine-coated 24-well plates (1 × 10^5 cells/well) and, one day later, each well was washed with 0.5 mL uptake buffer and incubated with 0.5 mL buffer containing various concentrations of the drugs. Uptake was started by the addition of [^3H]-dopamine, [^3H]-noradrenaline, or [^3H]-serotonin at a final concentration of 1 µM (specific activity 0.14 Ci/mmol) after 5 min of preincubation. After incubation for 2.5 min (SERT-cells: 5 min) at 25 °C, it was stopped by aspirating the uptake buffer and washing each well twice with 1 mL ice-cold buffer. Nonspecific uptake was determined in the presence of 10 µM mazindol (DAT- and NET-cells) or 10 µM clomipramine (SERT-cells). The radioactivity remaining in each well was determined by incubating with 0.4 mL 1% sodium dodecyl sulphate and transferring this solution into scintillation vials containing 3 mL of scintillation cocktail (Ultima Gold MV, Packard, Dovners Grove, IL, USA). The uptake buffer consisted of (mmol/L): 4 Tris–HCl; 6.25 4-(2-hydroxyethyl)-1-piperazineethanesulfonic acid (HEPES); 120 NaCl; 5 KCl; 1.2 CaCl2; 1.2 MgSO4; 5.6 D-glucose; 0.5 ascorbic acid; pH 7.1.

Experiment [2] deals with T2, noradrenaline transporter/SLC6A2 (NET) (Homo sapiens, UniProt P23975).
T2 construct: expressed in transfected cells; host or cells: HEK293
Put plainly: Cellular uptake experiments: [3H]-noradrenaline reuptake inhibition in transporter-expressing HEK293 cells. On the procedure: as §1, §2

In experiment [3] the target is T3, human serotonin transporter/SLC6A4 (SERT) (Homo sapiens, UniProt P31645).
T3 construct: expressed in transfected cells; host or cells: HEK293
Kind of experiment: Cellular uptake experiments: [3H]-serotonin reuptake inhibition in transporter-expressing HEK293 cells. The procedure:
as §1, §2

[4] abbreviates: Reuptake Inhibition (IC50 ± SE, µM) DAT.
Where [5] appears, read: Reuptake Inhibition (IC50 ± SE, µM) NET, cells stably expressing NET; [3H]-noradrenaline 1 µM; screening cut-off 50 µM.
Setting [6] is: at 50 µM / tested concentration range.
[7] abbreviates: Reuptake Inhibition (IC50 ± SE, µM) SERT, cells stably expressing SERT; [3H]-serotonin 1 µM; screening cut-off 50 µM.
Where [8] appears, read: read-out: Reuptake Inhibition (IC50 ± SE, µM) DAT.
The mark [9] stands for this setting: cells stably expressing NET; [3H]-noradrenaline 1 µM; screening cut-off 50 µM; read-out: Reuptake Inhibition (IC50 ± SE, µM) NET.
Where [10] appears, read: cells stably expressing SERT; [3H]-serotonin 1 µM; screening cut-off 50 µM; read-out: Reuptake Inhibition (IC50 ± SE, µM) SERT.
[11] abbreviates: read-out: Reuptake Inhibition (IC50 ± SE, µM) NET; cells stably expressing NET; [3H]-noradrenaline 1 µM; screening cut-off 50 µM.
Where [12] appears, read: read-out: Reuptake Inhibition (IC50 ± SE, µM) SERT; cells stably expressing SERT; [3H]-serotonin 1 µM; screening cut-off 50 µM.

T1 sequence (Q01959 whole entry): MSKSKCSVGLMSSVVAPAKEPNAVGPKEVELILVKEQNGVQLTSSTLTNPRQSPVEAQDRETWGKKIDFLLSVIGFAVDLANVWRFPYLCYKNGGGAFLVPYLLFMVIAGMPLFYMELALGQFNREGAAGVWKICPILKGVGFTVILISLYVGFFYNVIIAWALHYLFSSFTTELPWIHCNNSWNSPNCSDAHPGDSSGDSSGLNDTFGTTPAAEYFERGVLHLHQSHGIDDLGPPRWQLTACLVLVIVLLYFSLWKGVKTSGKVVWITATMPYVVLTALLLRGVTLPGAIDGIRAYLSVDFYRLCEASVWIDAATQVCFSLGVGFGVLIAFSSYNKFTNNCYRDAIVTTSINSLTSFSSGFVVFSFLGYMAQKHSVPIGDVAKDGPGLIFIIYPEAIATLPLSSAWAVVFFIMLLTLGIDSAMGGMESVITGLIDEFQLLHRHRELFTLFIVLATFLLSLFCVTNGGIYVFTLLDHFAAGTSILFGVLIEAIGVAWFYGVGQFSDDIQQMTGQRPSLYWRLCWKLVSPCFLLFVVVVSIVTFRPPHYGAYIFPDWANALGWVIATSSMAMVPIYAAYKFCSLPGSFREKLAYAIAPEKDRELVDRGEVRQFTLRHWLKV
T2 sequence (P23975 whole entry): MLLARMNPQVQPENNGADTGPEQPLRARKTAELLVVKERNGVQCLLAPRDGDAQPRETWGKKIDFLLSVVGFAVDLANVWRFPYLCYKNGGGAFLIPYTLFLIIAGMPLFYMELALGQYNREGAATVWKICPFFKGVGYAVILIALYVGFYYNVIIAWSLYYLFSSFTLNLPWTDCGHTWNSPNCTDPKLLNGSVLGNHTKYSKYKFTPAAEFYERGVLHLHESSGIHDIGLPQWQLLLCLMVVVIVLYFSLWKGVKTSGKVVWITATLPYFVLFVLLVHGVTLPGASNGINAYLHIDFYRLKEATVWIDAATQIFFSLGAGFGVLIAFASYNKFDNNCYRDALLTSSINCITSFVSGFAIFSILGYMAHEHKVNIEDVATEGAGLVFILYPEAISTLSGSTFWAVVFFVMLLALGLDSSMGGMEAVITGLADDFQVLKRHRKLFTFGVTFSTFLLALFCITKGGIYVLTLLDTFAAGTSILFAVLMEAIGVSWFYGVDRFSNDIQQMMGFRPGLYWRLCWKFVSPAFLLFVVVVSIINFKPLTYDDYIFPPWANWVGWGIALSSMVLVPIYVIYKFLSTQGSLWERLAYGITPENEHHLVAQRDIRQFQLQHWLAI
T3 sequence (P31645 whole entry): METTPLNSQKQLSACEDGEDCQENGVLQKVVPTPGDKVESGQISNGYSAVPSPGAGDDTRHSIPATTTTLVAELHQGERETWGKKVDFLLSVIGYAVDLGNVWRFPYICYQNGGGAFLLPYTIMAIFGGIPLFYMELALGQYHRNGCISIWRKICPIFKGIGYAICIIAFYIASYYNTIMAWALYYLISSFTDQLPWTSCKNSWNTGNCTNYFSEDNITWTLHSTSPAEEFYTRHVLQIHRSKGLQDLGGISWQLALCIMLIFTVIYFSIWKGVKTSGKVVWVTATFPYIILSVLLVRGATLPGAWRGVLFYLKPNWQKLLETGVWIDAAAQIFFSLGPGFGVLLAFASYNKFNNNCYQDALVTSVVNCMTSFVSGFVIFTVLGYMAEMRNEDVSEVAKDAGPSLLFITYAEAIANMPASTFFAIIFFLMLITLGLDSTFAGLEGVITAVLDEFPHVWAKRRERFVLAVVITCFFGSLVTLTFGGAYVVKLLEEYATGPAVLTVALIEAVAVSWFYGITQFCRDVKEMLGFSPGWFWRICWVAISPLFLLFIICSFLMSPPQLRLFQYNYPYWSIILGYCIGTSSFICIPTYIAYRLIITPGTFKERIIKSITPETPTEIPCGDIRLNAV

As for `[O-][S+](Cc1cccs1)C(c1ccccc1)c1ccccc1Br` (stereo not drawn) [Compound 5g, 2-((((2-bromophenyl)(phenyl)methyl)sulfinyl)methyl)thiophene], the IC50 in experiment [1] (setting [4]), in experiment [2] (setting [5]) and in experiment [3] (setting [7]) was more than 50 µM throughout. In addition, the “activity on DAT (reuptake inhibition), in words” value in experiment [1] is given as “no effect”. For the same compound, in experiment [2] (setting [6]), the “activity on NET (reuptake inhibition), in words” value is listed as “no effect”. The “activity on SERT (reuptake inhibition), in words” value in experiment [3] (setting [6]) is recorded as “no effect”.
In the case of `COc1ccccc1[C@H](c1ccccc1)[S@@+]([O-])Cc1cccs1` [Compound 6r, (S,S)-2-((((2-methoxyphenyl)(phenyl)methyl)sulfinyl)methyl)thiophene], the IC50 in experiment [1] (setting [4]), in experiment [2] (setting [5]) and in experiment [3] (setting [7]) was more than 50 µM throughout.
With `[O-][S+](Cc1cccs1)C(c1ccccc1)c1cccc(F)c1` (stereo not drawn) [Compound 5b, 2-((((3-fluorophenyl)(phenyl)methyl)sulfinyl)methyl)thiophene], the IC50 in experiment [1] (setting [8]) was 3.2 ± 0.4 µM; in experiment [2] (setting [9]) it was more than 50 µM; in experiment [3] (setting [10]), more than 50 µM.
Take `[O-][S@@+](Cc1cccs1)[C@@H](c1ccccc1)c1ccccc1F` [Compound 6a, (S,S)-2-((((2-fluorophenyl)(phenyl)methyl)sulfinyl)methyl)thiophene]: the IC50 was 13.3 ± 1.6 µM in experiment [1] (setting [8]), more than 50 µM in experiment [2] (setting [9]) and more than 50 µM in experiment [3] (setting [10]).
For the compound `COc1ccccc1[C@@H](c1ccccc1)[S@@+]([O-])Cc1cccs1` [Compound 7r, (S,R)-2-((((2-methoxyphenyl)(phenyl)methyl)sulfinyl)methyl)thiophene], the IC50 was 1.7 ± 0.1 µM in experiment [1] (setting [4]), more than 50 µM in experiment [2] (setting [5]) and more than 50 µM in experiment [3] (setting [7]).
As for `[O-][S+](Cc1cccs1)C(c1ccccc1)c1cccc(C(F)(F)F)c1` (stereo not drawn) [Compound 8p, 2-(((phenyl(3-(trifluoromethyl)phenyl)methyl)sulfinyl)methyl)thiophene], the values for the IC50 in experiment [1] (setting [4]), in experiment [2] (setting [11]) and in experiment [3] (setting [7]) were 6.2 ± 0.6 µM, more than 50 µM and 31 ± 5 µM, respectively.
Take `[O-][S@+](Cc1cccs1)[C@H](c1ccccc1)c1ccc(I)cc1` [Compound 8k, (R,R)-2-((((4-iodophenyl)(phenyl)methyl)sulfinyl)methyl)thiophene]: the values for the IC50 in experiment [1] (setting [4]), in experiment [2] (setting [5]) and in experiment [3] (setting [7]) were 2.6 ± 0.1 µM, more than 50 µM and more than 50 µM, respectively.
Turning to `[O-][S+](Cc1cccs1)C(c1ccccc1)c1ccc(C(F)(F)F)cc1` (stereo not drawn) [Compound 7q, 2-(((phenyl(4-(trifluoromethyl)phenyl)methyl)sulfinyl)methyl)thiophene], the values for the IC50 in experiment [1] (setting [4]), in experiment [2] (setting [11]) and in experiment [3] (setting [7]) were 24 ± 1 µM, more than 50 µM and more than 50 µM, respectively.
Take `Cc1ccccc1C(c1ccccc1)[S+]([O-])Cc1cccs1` (stereo not drawn) [Compound 8l, 2-(((phenyl(o-tolyl)methyl)sulfinyl)methyl)thiophene]: the IC50 in experiment [1] (setting [8]) was 9.5 ± 0.9 µM; in experiment [2] (setting [9]), more than 50 µM; in experiment [3] (setting [10]), more than 50 µM.
As to `COc1ccccc1C(c1ccccc1)[S+]([O-])Cc1cccs1` [Compound 8r, (S,S)-2-((((2-methoxyphenyl)(phenyl)methyl)sulfinyl)methyl)thiophene], the IC50 in experiment [1] (setting [4]), in experiment [2] (setting [5]) and in experiment [3] (setting [7]) was more than 50 µM each time.
`[O-][S+](Cc1cccs1)C(c1ccc(F)cc1)c1ccc(Cl)cc1` (stereo not drawn) [Compound 6u, 2-((((4-chlorophenyl)(4-fluorophenyl)methyl)sulfinyl)methyl)thiophene]: the values for the IC50 in experiment [1] (setting [4]), in experiment [2] (setting [11]) and in experiment [3] (setting [12]) were 12 ± 2 µM, more than 50 µM and more than 50 µM, respectively.
For `COc1ccc([C@@H](c2ccccc2)[S@+]([O-])Cc2cccs2)cc1` [Compound 6t, (R,R)-2-((((4-methoxyphenyl)(phenyl)methyl)sulfinyl)methyl)thiophene], the IC50 in experiment [1] (setting [4]) was 17 ± 3 µM; in experiment [2] (setting [5]), more than 50 µM; in experiment [3] (setting [7]), 11 ± 3 µM.
The like results for `[O-][S+](Cc1cccs1)C(c1ccccc1)c1ccccc1I` (stereo not drawn) [Compound 5i, 2-((((2-iodophenyl)(phenyl)methyl)sulfinyl)methyl)thiophene] were, in that order, more than 50 µM, more than 50 µM and more than 50 µM.
For `[O-][S@@+](Cc1cccs1)[C@@H](c1ccccc1)c1ccccc1Cl` [Compound 6d, (S,S)-2-((((2-chlorophenyl)(phenyl)methyl)sulfinyl)methyl)thiophene], the results for the IC50 in experiment [1] (setting [8]), in experiment [2] (setting [9]) and in experiment [3] (setting [10]) were 14.4 ± 2.4 µM, more than 50 µM and more than 50 µM, respectively.
For the compound `Cc1ccc([C@@H](c2ccccc2)[S@+]([O-])Cc2cccs2)cc1` [Compound 8n, (R,R)-2-(((phenyl(p-tolyl)methyl)sulfinyl)methyl)thiophene], the IC50 was 4 µM and 4.01 µM in experiment [1] (setting [8]); more than 50 µM in experiment [2] (setting [5]); 25 ± 4 µM in experiment [3] (setting [10]).
In the case of `[O-][S@+](Cc1cccs1)[C@@H](c1ccccc1)c1ccccc1F` [Compound 7a, (R,S)-2-((((2-fluorophenyl)(phenyl)methyl)sulfinyl)methyl)thiophene], the IC50 in experiment [1] (setting [8]) was 8.25 ± 0.16 µM; in experiment [2] (setting [9]) it was more than 50 µM; in experiment [3] (setting [10]), more than 50 µM.
As for `COc1cccc(C(c2ccccc2)[S+]([O-])Cc2cccs2)c1` (stereo not drawn) [Compound 5s, 2-((((3-methoxyphenyl)(phenyl)methyl)sulfinyl)methyl)thiophene], the IC50 in experiment [1] (setting [4]) is 2.89 ± 0.47 µM; in experiment [2] (setting [5]), more than 50 µM; in experiment [3] (setting [7]), more than 50 µM.
As for `Cc1cccc([C@H](c2ccccc2)[S@@+]([O-])Cc2cccs2)c1` [Compound 7m, (S,S)-2-(((phenyl(m-tolyl)methyl)sulfinyl)methyl)thiophene], the IC50 in experiment [1] (setting [4]) is 1.2 ± 0.09 µM; in experiment [2] (setting [5]), 49 ± 3 µM; in experiment [3] (setting [7]), more than 50 µM.
For the compound `[O-][S+](Cc1cccs1)C(c1ccccc1)c1cccc(F)c1` (stereo not drawn) [Compound 8b, 2-((((3-fluorophenyl)(phenyl)methyl)sulfinyl)methyl)thiophene], the IC50 is 9 ± 3 µM in experiment [1] (setting [8]), more than 50 µM in experiment [2] (setting [9]) and more than 50 µM in experiment [3] (setting [10]).
`[O-][S+](Cc1cccs1)C(c1ccccc1)c1ccccc1Br` (stereo not drawn) [Compound 6g, 2-((((2-bromophenyl)(phenyl)methyl)sulfinyl)methyl)thiophene]: the figures for the half-inhibitory concentration (IC50) in experiment [1] (setting [4]), in experiment [2] (setting [11]) and in experiment [3] (setting [12]) were 12.1 ± 1 µM, more than 50 µM and more than 50 µM, respectively.
Consider `[O-][S+](Cc1cccs1)C(c1ccccc1)c1cccc(F)c1` (stereo not drawn) [Compound 7b, 2-((((3-fluorophenyl)(phenyl)methyl)sulfinyl)methyl)thiophene], for which the values for the IC50 in experiment [1] (setting [8]), in experiment [2] (setting [9]) and in experiment [3] (setting [10]) were 2.3 ± 0.2 µM, more than 50 µM and more than 50 µM, respectively.
In the case of `Cc1ccccc1C(c1ccccc1)[S+]([O-])Cc1cccs1` (stereo not drawn) [Compound 7l, 2-(((phenyl(o-tolyl)methyl)sulfinyl)methyl)thiophene], the IC50 in experiment [1] (setting [8]) was 3.8 ± 0.5 µM; in experiment [2] (setting [9]), more than 50 µM; in experiment [3] (setting [10]) it was more than 50 µM.
Turning to `[O-][S@@+](Cc1cccs1)[C@@H](c1ccccc1)c1ccc(I)cc1` [Compound 7k, (S,S)-2-((((4-iodophenyl)(phenyl)methyl)sulfinyl)methyl)thiophene], the IC50 in experiment [1] (setting [4]), in experiment [2] (setting [5]) and in experiment [3] (setting [7]) was more than 50 µM each time.
Take `[O-][S+](Cc1cccs1)C(c1ccccc1)c1ccc(F)cc1` (stereo not drawn) [Compound 7c, 2-((((4-fluorophenyl)(phenyl)methyl)sulfinyl)methyl)thiophene]: the IC50 in experiment [1] (setting [8]) is 2.1 ± 0.6 µM; in experiment [2] (setting [9]), more than 50 µM; in experiment [3] (setting [10]), more than 50 µM.
For `[O-][S@+](Cc1cccs1)[C@H](c1ccccc1)c1ccccc1Cl` [Compound 5d, (R,R)-2-((((2-chlorophenyl)(phenyl)methyl)sulfinyl)methyl)thiophene], the “activity on DAT (reuptake inhibition), in words” value in experiment [1] is on record as “did not achieve ≥50% of radioligand displacement”. The IC50 in experiment [1] (setting [8]), in experiment [2] (setting [9]) and in experiment [3] (setting [10]) was more than 50 µM each time. The “activity on NET (reuptake inhibition), in words” value in experiment [2] (setting [6]) is “did not achieve ≥50% of radioligand displacement”. The “activity on SERT (reuptake inhibition), in words” value in experiment [3] (setting [6]) is on record as “did not achieve ≥50% of radioligand displacement”.

By IC50 is commonly meant the concentration needed to halve the response being measured.
